Earlier results, collected in patent US20090252791A1, “PHARMACEUTICAL COMPOSITIONS COMPRISING A TRIPTAN AND A NONSTEROIDAL ANTI-INFLAMMATORY DRUG” (priority 2008, published 2009).

For `CNS(=O)(=O)Cc1ccc2[nH]cc(CCN(C)C)c2c1` [Sumatriptan, 3-[2-(dimethylamino)ethyl]-N-methyl-1H-indole-5-methanesulfonamide], the “Solubility in water and in saline” value is listed as “readily soluble”.
